Experimental data: patent US20240285552A1 (priority 2020, published 2024)
pIC50: −log10 of the molar value. Where two headings read alike, the source gives them in different places. Residues, ends and D or L forms follow the SMILES beside them. *: point of attachment. Cbz = O=C(OCc1ccccc1)*; CH2F = FC*

Assays:
[1] = system: SARS CoV-2 nanoluciferase reporter virus; experiment: microbe, parasite or virus in culture; format: cell-based; conditions: for Concentration at Maximum % Inhibition / Maximum Inhibition: A549-ACE2, NLRV; for pIC50: read-out: IC50, viral replication, Nanoluciferase Reporter Virus Assay
in vitro [2] = conditions: human
in vitro [3] = conditions: African green monkey
Vero E6 cells = conditions: Example C (Table 4); for Conc. at Max. % Viability / Conc. at Min. % Viability / Max. Viability / Min. Viability: Vero E6
SARS-CoV-2 USA_WA1/2020 = experiment: microbe, parasite or virus in culture; format: cell-based
[4] = target: T1, recombinant human ACE2 (rhACE2) (Homo sapiens, UniProt Q9BYF1); experiment: ACE2 inhibitor screening assay (exopeptidase activity), CLQ and analogues, ZnCl2; format: biochemical
T1 construct: purchased BPS Bioscience 79923
Protocol: An ACE2 inhibitor screening assay kit with fluorogenic substrate (Catalogue #79923) was purchased from BPS Bioscience (San Diego, CA) and adapted to measure the exopeptidase activity of ACE2 in the presence and absence of inhibitors. The fluorescence assay was performed using a black flat-bottom 96-well plate with a final reaction volume of 50 μL following the manufacturer's instructions. 10 mM stock solutions of the compounds were prepared in Dimethyl sulfoxide (DMSO). Next, the compounds were serially diluted in DMSO as follows: 100 μM, 50 μM, 10 μM, 1 μM, 0.5 μM, and 0.1 μM for CLQ and CLBQ14 as well as 10 μM and 1 μM for CLCQ. All experiments were performed in triplicates. Each plate contained a positive control of enzyme-treated with vehicle alone (2% DMSO) and a blank control with no enzyme. Briefly, each reaction contained 24 μL of purified recombinant human ACE2 protein (0.42 ng/L) in ACE2 buffer, 1 μL of compound at serially diluted concentrations, and 25 μL ACE2 fluorogenic substrate. The total reaction volume was 50 μL. […] Thereafter, the fluorescence intensities (λExcitation=535 nm, λEmission=595 nm) were measured using a Beckman Coulter DTX880 multimode plate reader. […]
The effects of CLQ, CLBQ14, and CLCQ on the exopeptidase activity of rhACE2 were determined using a fluorometric assay provided by BPS Bioscience and adapted accordingly. […]

[5] = target: T2, rhACE2 and SARS-CoV-2 Spike (RBD) protein interaction (Homo sapiens, UniProt Q9BYF1); experiment: Spike (RBD)-ACE2 binding assay (ELISA); set-up: species or system human; SARS-CoV-2; conditions: bell shaped dose-response curve; CLQ series; read-out: IC50_2, ACE2-Spike (RBD) protein interaction
T2 construct: purchased RayBiotech CoV-SACE2-1

[6] = Severe acute respiratory syndrome coronavirus 2, A549, 72 h
[7] = Cytotoxicity CC50, A549 cells, 72 hours
[8] = Cytotoxicity CC50, Vero E6, 72 hours, Example C (Table 4)
[9] = Example C (Table 3), read-out: IC 50 against SARS-COV-2 Induced Cytopathic Effect in Vero E6 Cells
[10] = Severe acute respiratory syndrome coronavirus 2, Vero C1008, 72 h, read-out: IC50 against SARS-CoV-2 infection induced CPE
[11] = Severe acute respiratory syndrome coronavirus 2, Vero C1008, Example C (Table 3), read-out: IC 50 against SARS-COV-2 Induced Cytopathic Effect in Vero E6 Cells
[12] = Severe acute respiratory syndrome coronavirus 2, Vero C1008, Vero E6, Example B, highest concentration tested 30 μM, read-out: IC50 against SARS-CoV-2 infection induced CPE
[13] = 50% cytotoxic concentration (CC50), Vero E6, 72 hours, Examples A and B, highest concentration 30 μM

T1 sequence (Q9BYF1 18-805): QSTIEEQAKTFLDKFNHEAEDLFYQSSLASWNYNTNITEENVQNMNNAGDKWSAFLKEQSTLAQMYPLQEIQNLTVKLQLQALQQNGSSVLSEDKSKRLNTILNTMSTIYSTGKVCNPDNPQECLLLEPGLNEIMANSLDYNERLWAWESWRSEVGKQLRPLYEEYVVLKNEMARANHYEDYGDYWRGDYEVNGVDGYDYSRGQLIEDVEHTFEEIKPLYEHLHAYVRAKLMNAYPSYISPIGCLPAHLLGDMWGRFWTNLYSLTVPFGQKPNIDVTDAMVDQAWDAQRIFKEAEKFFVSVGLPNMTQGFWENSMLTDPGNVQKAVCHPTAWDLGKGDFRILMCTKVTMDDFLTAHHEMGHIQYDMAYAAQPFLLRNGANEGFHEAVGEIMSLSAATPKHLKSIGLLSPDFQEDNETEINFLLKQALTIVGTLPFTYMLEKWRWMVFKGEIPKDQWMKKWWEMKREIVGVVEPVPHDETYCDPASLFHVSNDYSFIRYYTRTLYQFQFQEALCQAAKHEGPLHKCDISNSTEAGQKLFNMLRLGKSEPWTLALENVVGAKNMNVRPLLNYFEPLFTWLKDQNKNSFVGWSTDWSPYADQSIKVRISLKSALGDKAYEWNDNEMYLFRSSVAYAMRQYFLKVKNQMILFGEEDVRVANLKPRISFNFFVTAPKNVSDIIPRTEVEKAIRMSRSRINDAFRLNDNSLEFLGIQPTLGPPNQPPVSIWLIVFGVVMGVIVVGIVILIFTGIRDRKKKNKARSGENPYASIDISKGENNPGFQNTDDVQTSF
T2 sequence (Q9BYF1 18-740): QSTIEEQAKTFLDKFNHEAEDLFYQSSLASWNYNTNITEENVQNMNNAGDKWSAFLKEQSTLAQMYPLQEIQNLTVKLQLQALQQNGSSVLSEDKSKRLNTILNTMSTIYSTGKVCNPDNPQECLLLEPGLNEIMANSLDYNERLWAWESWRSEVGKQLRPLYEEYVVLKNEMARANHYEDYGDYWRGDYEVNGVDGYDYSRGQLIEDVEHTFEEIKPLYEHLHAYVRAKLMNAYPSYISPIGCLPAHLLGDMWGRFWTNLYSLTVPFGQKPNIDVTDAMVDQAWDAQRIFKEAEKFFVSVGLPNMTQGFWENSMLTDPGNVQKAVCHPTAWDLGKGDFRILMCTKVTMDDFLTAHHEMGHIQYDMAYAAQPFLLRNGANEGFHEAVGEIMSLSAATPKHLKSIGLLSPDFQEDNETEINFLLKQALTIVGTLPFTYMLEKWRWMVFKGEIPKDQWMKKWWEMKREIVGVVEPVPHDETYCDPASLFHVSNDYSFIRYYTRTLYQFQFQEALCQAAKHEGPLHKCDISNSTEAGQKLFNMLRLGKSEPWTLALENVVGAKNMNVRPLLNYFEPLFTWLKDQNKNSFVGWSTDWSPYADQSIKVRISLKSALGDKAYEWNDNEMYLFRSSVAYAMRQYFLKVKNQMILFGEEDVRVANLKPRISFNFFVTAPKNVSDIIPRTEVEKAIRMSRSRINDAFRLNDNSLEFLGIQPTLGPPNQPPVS

| Compound | Concentration at Maximum % Inhibition [1] | Maximum Inhibition [1] [%] | Conc. at Max. % Viability (A549 cells) | Conc. at Min. % Viability (A549 cells) | Max. Viability (A549 cells) [%] | Min. Viability (A549 cells) [%] | Conc. at Max. % Viability (Vero E6 cells) [µM] | Conc. at Min. % Viability (Vero E6 cells) [µM] | Max. Viability (Vero E6 cells) [%] | Min. Viability (Vero E6 cells) [%] | Concentration at Maximum % Inhibition (SARS-CoV-2 USA_WA1/2020; Example C (Table 3)) [µM] | Maximum Inhibition (SARS-CoV-2 USA_WA1/2020; Example C (Table 3)) [%] | pIC50 (SARS-CoV-2 USA_WA1/2020; [10]) | pIC50 (SARS-CoV-2 USA_WA1/2020; [12]) | further results |
| --- | --- | --- | --- | --- | --- | --- | --- | --- | --- | --- | --- | --- | --- | --- | --- |
| CC(C)C(=O)OC[C@H]1O[C@@H](n2ccc(NO)nc2=O)[C@H](O)[C@@H]1O [Molnupiravir] | 10 µM | 91.12 | .002 µM | 0.014 µM | 98.56 | 88.88 | – | – | – | – | – | – | – | – | pIC50 [1, 6]: 5.38; CC50 at 72 h (in vitro [2]; [7]): > 10 µM |
| CCC(CC)COC(=O)[C@H](C)N[P@](=O)(OC[C@H]1O[C@@](C#N)(c2ccc3c(N)ncnn23)[C@H](O)[C@@H]1O)Oc1ccccc1 [Remdesivir] | 1.5 µM | 99.58 | .006 µM | 0.094 µM | 95.46 | 84.65 | 3.750 | 0.117 | 100.73 | 91.15 | 30 | 120.89 | 5.35 | 5.07 | CC50 (in vitro [3]; [8]): > 30 µM; CC50 (in vitro [2]; [7]): > 3 µM; pIC50 (SARS-CoV-2 USA_WA1/2020; [9]): 4.79; pIC50 (SARS-CoV-2 USA_WA1/2020; [11]): 4.80 |
| CC(C)(C)[C@H](NC(=O)C(F)(F)F)C(=O)N1C[C@H]2[C@@H]([C@H]1C(=O)N[C@H](C#N)C[C@@H]1CCNC1=O)C2(C)C [PF-07321332] | 0.5 µM | 99.67 | – | – | – | – | – | – | – | – | – | – | – | – | pIC50 ([1]; listed as Paxlovid): 7.30; pIC50 [1]: 7.24 |
| CC(C)C[C@H](NC(=O)OCc1ccccc1)C(=O)N[C@@H](CC(C)C)C(=O)N[C@@H](Cc1ccc(O)cc1)C(=O)CF [Calpain Inhibitor IV] (Cbz-Leu-Leu-Tyr-CH2F) | .0028 µM | 99.56 | .090 µM | .0056 µM | 94.37 | 77.49 | 0.056 | 0.028 | 106.84 | 99.77 | 7.17 | 115.91 | – | – | pIC50 [1]: 9.30; CC50 (Vero E6 cells; read-out: Cytotoxicity CC50, Vero E6, 72 hours): > 7.17 µM; pIC50 (SARS-CoV-2 USA_WA1/2020; Vero E6, Example B, highest concentration tested 30 μM, read-out: IC50 against SARS-CoV-2 infection induced CPE): 6.54; pIC50 (SARS-CoV-2 USA_WA1/2020; read-out: IC 50 against SARS-COV-2 Induced Cytopathic Effect in Vero E6 Cells): 5.43; pIC50 (SARS-CoV-2 USA_WA1/2020; read-out: IC50 against SARS-CoV-2 infection induced CPE): 6.39; CC50 (A549 cells; read-out: Cytotoxicity CC50, 72 hours): > 0.179 µM |
| CCN(CCO)CCCC(C)Nc1ccnc2cc(Cl)ccc12 (centres unmarked) [Hydroxychloroquine] | – | – | – | – | – | – | – | – | – | – | – | – | 5.30 | 5.29 | – |
| Oc1c(Br)cc(Cl)c2cccnc12 [CLBQ14, 7-bromo-5-chloro-8-hydroxyquinoline] | – | – | – | – | – | – | – | – | – | – | – | – | 4.83 | – | CC50 at 72 h (in vitro [3]; [13]): > 30 µM; inhibition at 30 µM (SARS-CoV-2 USA_WA1/2020; Severe acute respiratory syndrome coronavirus 2, Vero C1008, at 30 μM, Example A, read-out: maximum inhibition of CPE): ~103% |
| CCN(CC)CCCC(C)Nc1ccnc2cc(Cl)ccc12 (centres unmarked) [Chloroquine] | 15 µM | 99.53 | .023 µM | 30 µM | 117.48 | 9.11 | 0.469 | 3.750 | 99.66 | 90.50 | 30 | 114.51 | 5.96 | 5.45 | pIC50 [1, 6]: 5.48; CC50 at 72 h (in vitro [3]): > 30 µM; CC50 at 72 h (in vitro [2]): 18.4 µM; pIC50 (SARS-CoV-2 USA_WA1/2020; [11]): 5.05 |
| Oc1c(Cl)cc(Cl)c2cccnc12 [CLCQ, 5,7-Dichloro-8-hydroxyquinoline] | – | – | – | – | – | – | – | – | – | – | – | – | 4.79 | – | CC50 (in vitro [3]; [13]): > 30 µM |
| CCOC(=O)[C@H]1O[C@@H]1C(=O)N[C@@H](CC(C)C)C(=O)NCCC(C)C [Aloxistatin] | – | – | – | – | – | – | 0.234 | 0.117 | 106.71 | 93.02 | 15 | 130.81 | 4.78 | 4.66 | CC50 at 72 h (in vitro [3]; [8]): > 30 µM; pIC50 (SARS-CoV-2 USA_WA1/2020; [9]): 5.34; pIC50 (SARS-CoV-2 USA_WA1/2020; [11]): 5.34 |
| Oc1c(I)cc(Cl)c2cccnc12 [CLQ, 5-chloro-7-iodo-8-quinolinol] | – | – | – | – | – | – | – | – | – | – | – | – | 4.90 | – | pIC50 ([4]; 2.5 hours, room temperature, read-out: IC50 against rhACE2 exopeptidase activity): 5.27; CC50 at 72 h (in vitro [3]; [13]): > 30 µM; pIC50 [5]: 4.74 |
| [Cl-].[Cl-].[Zn+2] [ZnCl2, Zinc Chloride] | – | – | – | – | – | – | – | – | – | – | – | – | – | – | effect on rhACE2 exopeptidase activity ([4]; 100 μM to 100 nM): increasing exopeptidase activity |
